Laboratory results: patent publication US11352358B2, “FXR agonist” (XUANZHU BIOPHARMACEUTICAL CO., LTD., priority 2017, dated 2022)

Assay: Liver microsome metabolism stability, rat liver microsome
Format: in vitro ADME, SD rat
Conditions: 0.5 mg protein/mL, test sample 1 μM, β-NADPH
Description: Test samples: the homemade compounds 1, 2, 4 and 5 of the present invention (for their chemical names and preparation methods, see the preparation example for each compound).
a mixed liver microsomes of SD rat and human both purchased from XenoTech, with batch Nos.: 1410271 (SD rat) and 1410013 (human) respectively, wherein the microsomal protein concentrations both were 20 mg mL^−1;
experimental promoter β-NADPH purchased from Roche (batch No.: 524F0231); and a phosphate buffer solution (pH 7.4) made in the lab.
An appropriate amount of the test sample powder was weighed accurately, and dissolved in an appropriate amount of dimethyl sulfoxide (DMSO) to a concentration of 1 mM; and the solution was then diluted by 20 times with methanol to yield a 50 μM working solution.
(1) According to the proportions in table 3 “Composition of the incubation system for liver microsome metabolism stability experiment” above, for each compound, 6 mL of PBS (100 mM), 0.6 mL of MgCl2 solution (20 mM) and 3.66 mL of H2O were made into a mixed solution 1 for the incubation system (not containing the microsomes, the test sample and β-NADPH).
(2) Liver microsomes (20 mg protein/mL) were taken from a refrigerator (−80° C.), and were placed on a thermostatic water bath oscillator (37° C.) and pre-incubated for 3 mins.
(3) For each compound, 1.88 mL of the mixed solution 1 for the incubation system was added with 55 μL of microsomes to obtain a mixed solution 2 for the incubation system (not containing the test sample and β-NADPH).
(4) Sample group (containing the microsomes and D-NADPH): 616 μL of mixed solution 2 for the incubation system was added with 14 μL of the test sample working solution (with a concentration of 50 μM), and with 70 μL of R-NADPH working solution (10 mM). The resulted solution was well mixed, and the resulted solution was then duplicated. The time points of sampling were at 0 min, 5th min, 10th min, 20th min, 30th min and 60th min.
(5) Control group (containing the microsomes, and water instead of D-NADPH): 264 μL of mixed solution 2 for the incubation system was added with 6 μL of the test sample working solution (50 μM), and with 30 μL of water. The resulted solution was well mixed, and the resulted solution was then duplicated. The time points of sampling were at 0 min and 60th min.
(6) 50 μL of sample was taken from an incubating sample tube at each predetermined time point, added to a terminating sample tube (containing 300 μL of cold terminator), and vortexed; and the reaction was terminated.
(7) after 10 mins of vortexing, the solution was centrifuged for 5 mins (12,000 rpm).
(8) 100 μL of supernatant was taken and added with 100 μL of water, and the mixture solution was thoroughly vortexed; and the solution was then analyzed by LC-MS/MS.
Percentages of residual contents were calculated according to the following formula.

Residual content (%) after 60 minutes of incubation: 77%
SMILES: O=C(O)c1ccc2nc(N3C[C@@H]4C[C@H]3C[C@H]4OCc3c(-c4c(Cl)cccc4Cl)noc3C3CC3)sc2c1 [Compound 2-1, 2-((1S, 4S, 5R)-5-((5-cyclopropyl-3-(2,6-dichlorophenyl)isoxazol-4-yl)methoxy)-2-azabicyclo[2.2.1]heptan-2-yl)benzo[d]thiazole-6-carboxylic acid]
